Results reported in US11970465B1, “Ethyl {[4-benzoyl-5-(3-fluorophenyl)-4H-1,2,4-triazol-3-yl]thio}acetate as an antimicrobial compound” (priority 2023, dated 2024).

Columns and labels:
[1] = system: different microbes (Bacillus cereus, Staphylococcus aureus, Pseudomonas aeruginosa, Escherichia coli, Aspergillus flavus, Chrysosporium keratinophilum); experiment: agar plate disc-diffusion antimicrobial test; format: cell-based; conditions: disc wetted with 10 μL of 10 mg/mL in DMSO; 37° C., 48 h (72 h for fungi); inhibition zones measured in mm but not given
Experimental: The agar plate disc-diffusion method was applied. Sterilized filter papers (6 mm in diameter) were wetted with 10 μL of a solution of ethyl {[4-benzoyl-5-(3-fluorophenyl)-4H-1,2,4-triazol-3-yl]thio}acetate (III) to be tested, containing 10 mg/mL in DMSO, and the discs were allowed to air dry. The discs were then placed onto the surface of agar plates (nutrient agar for bacteria and Sabouraud's dextrose agar for fungi) seeded with the test organism. Each plate contained 15 mL of the agar medium, previously seeded with 0.2 mL of the broth culture of each organism pregrown for 18 h. The plates were incubated at 37° C. for 48 h, and 72 h for fungi. The inhibition zones was measured in mm. Discs impregnated with DMSO were used as a control, and its inhibition zone was subtracted from the tested compound actual inhibition zone. […] The antibacterial activity was screened against gram positive bacteria namely Bacillus cereus and Staphylococcus aureus and gram-negative bacterial strains namely Pseudomonas aeruginosa and Escherichia coli, while the antifungal activity was screened against Aspergillus flavus and Chrysosporium keratinophilum.

melting point: 154 to 155 °C
SMILES: CCOC(=O)CSc1nnc(-c2cccc(F)c2)n1C(=O)c1ccccc1 [III, ethyl {[4-benzoyl-5-(3-fluorophenyl)-4H-1,2,4-triazol-3-yl]thio}acetate]
antimicrobial activities [1]: excellent antimicrobial activities
